Data taken from the supplement of paper PMC10307832.

Columns and labels:
Assay in all cases: relative viability (nuclei count vs DMSO), 5 days (fraction); higher = more cells survive
Wnt-C59 + Trametinib = compound: CC1=NC=CC(=C1)C2=CC=C(C=C2)CC(=O)NC3=CC=C(C=C3)C4=CN=CC=C4 [Wnt-C59] + CC(=O)Nc1cccc(-n2c(=O)n(C3CC3)c(=O)c3c(Nc4ccc(I)cc4F)n(C)c(=O)c(C)c32)c1 [Trametinib] (partner 0.02 µM)
Summary of the method: (§1)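 Lung cancer cell lines were seeded in 1536-well plates and dosed by pin tool the next day, with either a single drug or a fixed anchor-drug dose combined with five library-drug doses (not always all listed) spaced in √10 steps. Five days later, one step fixed the cells and stained their nuclei (final 0.05% Triton X-100, 1% formaldehyde, 1 ug/ml Hoechst), and nuclei were counted on 4× images. Relative viability is the nuclei count in treated wells divided by the count in vehicle wells, and each value is the median of duplicate plates.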

Lapatinib + Palbociclib = compound: CS(=O)(=O)CCNCc1ccc(-c2ccc3ncnc(Nc4ccc(OCc5cccc(F)c5)c(Cl)c4)c3c2)o1 [Lapatinib] + CC(=O)c1c(C)c2cnc(Nc3ccc(N4CCNCC4)cn3)nc2n(C2CCCC2)c1=O [Palbociclib] (partner 0.5 µM)
Summary of the method: as §1

Wnt-C59 + OSI-027 = compound: CC1=NC=CC(=C1)C2=CC=C(C=C2)CC(=O)NC3=CC=C(C=C3)C4=CN=CC=C4 [Wnt-C59] + COc1cccc2cc(-c3nc([C@H]4CC[C@H](C(=O)O)CC4)n4ncnc(N)c34)[nH]c12 [OSI-027] (partner 0.5 µM)
Summary of the method: as §1

Wnt-C59 + Olaparib = compound: CC1=NC=CC(=C1)C2=CC=C(C=C2)CC(=O)NC3=CC=C(C=C3)C4=CN=CC=C4 [Wnt-C59] + O=C(c1cc(Cc2n[nH]c(=O)c3ccccc23)ccc1F)N1CCN(C(=O)C2CC2)CC1 [Olaparib] (partner 8 µM)
Summary of the method: as §1

| Cell Line | relative viability (Wnt-C59 + Trametinib; first compound 0.001 µM) | relative viability (Wnt-C59 + Trametinib; first compound 0.01 µM) | relative viability (Wnt-C59 + Trametinib; first compound 0.03162 µM) | relative viability (Wnt-C59 + Trametinib; first compound 0.1 µM) | relative viability (Lapatinib + Palbociclib; first compound 0.06325 µM) | relative viability (Lapatinib + Palbociclib; first compound 0.2 µM) | relative viability (Lapatinib + Palbociclib; first compound 0.6325 µM) | relative viability (Lapatinib + Palbociclib; first compound 2 µM) | relative viability (Wnt-C59 + OSI-027; first compound 0.001 µM) | relative viability (Wnt-C59 + OSI-027; first compound 0.01 µM) | relative viability (Wnt-C59 + OSI-027; first compound 0.03162 µM) | relative viability (Wnt-C59 + OSI-027; first compound 0.1 µM) | relative viability (Wnt-C59 + Olaparib; first compound 0.001 µM) | relative viability (Wnt-C59 + Olaparib; first compound 0.01 µM) | relative viability (Wnt-C59 + Olaparib; first compound 0.03162 µM) | relative viability (Wnt-C59 + Olaparib; first compound 0.1 µM) | relative viability (Lapatinib + Palbociclib; first compound 0.02 µM) |
| --- | --- | --- | --- | --- | --- | --- | --- | --- | --- | --- | --- | --- | --- | --- | --- | --- | --- |
| NCI-H1734 | 0.675 | 0.744 | 0.77 | 0.632 | 0.271 | 0.31 | 0.332 | 0.303 | 0.622 | 0.518 | 0.596 | 0.3 | 0.615 | 0.612 | 0.672 | 0.282 | – |
| NCI-H1666 | 0.894 | 0.762 | 0.94 | 0.79 | 0.632 | 0.674 | 0.65 | 0.633 | 0.825 | 0.849 | 0.873 | 0.876 | 0.732 | 0.758 | 0.711 | 0.817 | 0.63 |
| BEN | 1.13 | 0.995 | 1 | 1.04 | 0.469 | 0.472 | 0.432 | 0.468 | 0.256 | 0.309 | 0.306 | 0.305 | 1.32 | 1.04 | 1.27 | 0.94 | 0.455 |
| ChaGo-K-1 | 0.845 | 0.875 | 0.96 | 0.841 | 0.9 | 0.939 | 0.909 | 0.912 | 0.512 | 0.569 | 0.525 | 0.563 | 0.419 | 0.417 | 0.462 | 0.435 | 0.868 |
| SK-MES-1 | 0.61 | 0.556 | 0.511 | 0.518 | 0.384 | 0.326 | 0.328 | 0.299 | 0.673 | 0.54 | 0.666 | 0.567 | 0.662 | 0.684 | 0.863 | 0.615 | 0.338 |
| NCI-H3122 | 0.18 | 0.243 | 0.207 | 0.218 | 0.176 | 0.17 | 0.198 | 0.236 | 1.02 | 0.978 | 1.32 | 0.891 | 0.633 | 0.549 | 0.637 | 0.504 | 0.185 |
| NCI-H1563 | – | – | – | – | – | – | – | – | 0.711 | 0.784 | 0.761 | 0.728 | – | – | – | – | – |
| CAL-12T | 0.327 | 0.378 | 0.367 | 0.381 | 0.304 | 0.319 | 0.329 | 0.137 | 0.871 | 0.611 | 0.856 | 0.654 | 0.727 | 0.689 | 0.674 | 0.783 | 0.197 |
| NCI-H1975 | 0.414 | 0.38 | 0.33 | 0.349 | 0.492 | 0.518 | 0.575 | 0.311 | 0.685 | 0.555 | 0.855 | 0.713 | 0.797 | 0.807 | 0.786 | 0.869 | 0.285 |
| NCI-H2009 | 0.267 | 0.315 | 0.267 | 0.294 | 0.213 | 0.177 | 0.253 | 0.233 | 0.699 | 0.701 | 0.695 | 0.64 | 0.644 | 0.765 | 0.734 | 0.727 | 0.192 |
| LC-2-ad | 0.904 | 0.874 | 0.905 | 0.9 | 0.522 | 0.527 | 0.501 | 0.476 | 1.18 | 0.822 | 0.937 | 0.729 | 0.725 | 0.74 | 0.716 | 0.356 | – |
| NCI-H647 | 0.503 | 0.404 | 0.528 | 0.47 | 0.393 | 0.434 | 0.292 | 0.307 | 0.644 | 0.763 | 0.779 | 0.676 | 0.579 | 0.539 | 0.762 | 0.513 | 0.393 |
| HCC-78 | 0.691 | 0.746 | 0.908 | 0.854 | 0.453 | 0.49 | 0.467 | 0.506 | 0.389 | 0.364 | 0.366 | 0.411 | 0.883 | 0.852 | 0.855 | 0.633 | – |
| Calu-6 | – | – | – | – | – | – | – | – | – | – | – | – | 0.572 | 0.576 | 0.698 | 0.614 | – |
| H3255 | 0.664 | 0.495 | 0.683 | 0.506 | 0.291 | 0.308 | 0.291 | 0.283 | 0.683 | 0.58 | 0.685 | 0.545 | 0.641 | 0.458 | 0.56 | 0.526 | 0.334 |
| EBC-1 | – | – | – | – | – | – | – | – | – | – | – | – | 0.742 | 0.75 | 0.681 | 0.635 | – |
| NCI-H1395 | 0.931 | 0.995 | 1.04 | 1.02 | 0.621 | 0.581 | 0.598 | 0.616 | 0.61 | 0.661 | 0.717 | 0.727 | 0.497 | 0.444 | 0.411 | 0.424 | – |
| PC-14 | 0.97 | 0.911 | 0.9 | 0.729 | 0.526 | 0.451 | 0.373 | 0.0812 | 1.01 | 0.897 | 1.18 | 0.731 | 0.26 | 0.248 | 0.342 | 0.292 | 0.497 |
| NCI-H522 | 0.786 | 0.741 | 0.829 | 0.752 | 0.749 | 0.954 | 1.02 | 0.777 | 0.683 | 0.654 | 0.742 | 0.784 | 0.694 | 0.74 | 0.565 | 0.581 | – |
| HOP-62 | 0.347 | 0.366 | 0.352 | 0.347 | 0.44 | 0.457 | 0.451 | 0.432 | 0.743 | 0.813 | 0.788 | 0.852 | 0.523 | 0.266 | 0.363 | 0.343 | – |
| NCI-H1623 | – | – | – | – | – | – | – | – | 0.429 | 0.383 | 0.416 | 0.453 | – | – | – | – | – |
| NCI-H2087 | 0.203 | 0.176 | 0.205 | 0.259 | 0.161 | 0.177 | 0.251 | 0.246 | 0.53 | 0.476 | 0.572 | 0.592 | 0.608 | 0.657 | 0.688 | 0.722 | 0.238 |
